According to US20070049564A1 (Wyeth, priority 2005, published 2007):
Converted amounts (≈) assume the structure as drawn.

Tests used:
Assay in all cases: MIC, broth microdilution
E. coli GC 2233 = conditions: Escherichia coli
E. coli GC 2270 = conditions: Escherichia coli
E. coli GC 2271 = conditions: Escherichia coli
E. coli GC 2272 = conditions: Escherichia coli
E. coli GC 4560 = conditions: Escherichia coli
E. coli GC 6465 = conditions: Escherichia coli
E. coli GC 3226 = conditions: Escherichia coli
E. coli GC 2203 = conditions: Escherichia coli
E. coli GC 1073 = conditions: Escherichia coli
P. aeruginosa GC 2214 = conditions: Pseudomonas aeruginosa
S. aureus GC 1131 = conditions: Staphylococcus aureus
S. aureus GC 6467 = conditions: Staphylococcus aureus
S. aureus GC 1079 = conditions: Staphylococcus aureus
S. aureus GC 6335 = conditions: Staphylococcus aureus
S. aureus GC 6469 = conditions: Staphylococcus aureus
S. epidermidis GC 4935 = conditions: Staphylococcus epidermidis
E. faecalis GC 2265 = conditions: Enterococcus faecalis
Method: Antimicrobial susceptibility testing. The in vitro activities of the antibiotics are determined by the broth microdilution method as recommended by the National Committee for Clinical Laboratory Standards (NCCLS) (1). Mueller-Hinton II broth (MHBII)(BBL Cockeysville, Md.) is the medium employed in the testing procedures. Microtiter plates containing serial dilutions of each antimicrobial agent are inoculated with each organism to yield the appropriate density (10^5 CFU/ml) in a 100 μl final volume. The plates are incubated for 18-22 hours at 35° C. in ambient air.
Representative compounds were first incubated in mouse serum for an hour prior to the in vitro testing against a panel of selected gram-positive and gram-negative bacteria strains. All compounds were also pre-incubated in water for an hour prior to testing as control.

E. faecalis GC 2267 = conditions: Enterococcus faecalis
E. faecium GC 2243 = conditions: Enterococcus faecium
c. albicans GC 3066 = system: c. albicans GC 3066

## CCCCN(CC(=O)Nc1cc(N(C)C)c2c(c1O)C(=O)C1=C(O)[C@]3(O)C(=O)C(C(N)=O)=C(O)[C@@H](N(C)C)[C@@H]3C[C@@H]1C2)C(=O)OCOC(=O)c1ccc(F)cc1 [Example 4, ({[(2-{[(5aR,6aS,7S,10aS)-9-(aminocarbonyl)-4,7-bis(dimethylamino)-1,8,10a,11-tetrahydroxy-10,12-dioxo-5,5a,6,6a,7,10,10a,12-octahydrotetracen-2-yl]amino}-2-oxoethyl)(butyl)amino]carbonyl}oxy)methyl 4-fluorobenzoate]
E. coli GC 2233; GC2233, E. coli GC 2233, Mouse Serum pre-incubation
  MIC: 1 µg/mL (≈ 1.28 µM)
E. coli GC 2233; GC2233, E. coli GC 2233, Water pre-incubation
  MIC: 64 µg/mL (≈ 81.9 µM)
E. coli GC 2270; GC2270, E. coli GC 2270, Mouse Serum pre-incubation
  MIC: 1 µg/mL (≈ 1.28 µM)
E. coli GC 2270; GC2270, E. coli GC 2270, Water pre-incubation
  MIC: 64 µg/mL (≈ 81.9 µM)
E. coli GC 2271; GC2271, E. coli GC 2271, Mouse Serum pre-incubation
  MIC: 0.5 µg/mL (≈ 0.64 µM)
E. coli GC 2271; GC2271, E. coli GC 2271, Water pre-incubation
  MIC: 64 µg/mL (≈ 81.9 µM)
E. coli GC 2272; GC2272, E. coli GC 2272, Mouse Serum pre-incubation
  MIC: 1 µg/mL (≈ 1.28 µM)
E. coli GC 2272; GC2272, E. coli GC 2272, Water pre-incubation
  MIC: 64 µg/mL (≈ 81.9 µM)
E. coli GC 4560; GC4560, E. coli GC 4560, Mouse Serum pre-incubation
  MIC: 0.25 µg/mL (≈ 0.32 µM)
E. coli GC 4560; GC4560, E. coli GC 4560, Water pre-incubation
  MIC: 8 µg/mL (≈ 10.2 µM)
E. coli GC 6465; GC6465, E. coli GC 6465, Mouse Serum pre-incubation
  MIC: 4 µg/mL (≈ 5.12 µM)
E. coli GC 6465; GC6465, E. coli GC 6465, Water pre-incubation
  MIC: > 64 µg/mL
E. coli GC 3226; GC3226, E. coli GC 3226, Mouse Serum pre-incubation
  MIC: 2 µg/mL (≈ 2.56 µM)
E. coli GC 3226; GC3226, E. coli GC 3226, Water pre-incubation
  MIC: 64 µg/mL (≈ 81.9 µM)
E. coli GC 2203; GC2203, E. coli GC 2203, Mouse Serum pre-incubation
  MIC: 1 µg/mL (≈ 1.28 µM)
E. coli GC 2203; GC2203, E. coli GC 2203, Water pre-incubation
  MIC: 64 µg/mL (≈ 81.9 µM)
E. coli GC 1073; GC1073, E. coli GC 1073, Mouse Serum pre-incubation
  MIC: 1 µg/mL (≈ 1.28 µM)
E. coli GC 1073; GC1073, E. coli GC 1073, Water pre-incubation
  MIC: > 64 µg/mL
P. aeruginosa GC 2214; GC2214, P. aeruginosa GC 2214, Mouse Serum pre-incubation
  MIC: 32 µg/mL (≈ 40.9 µM)
P. aeruginosa GC 2214; GC2214, P. aeruginosa GC 2214, Water pre-incubation
  MIC: > 64 µg/mL
S. aureus GC 1131; GC1131, S. aureus GC 1131, Mouse Serum pre-incubation
  MIC: 1 µg/mL (≈ 1.28 µM)
S. aureus GC 1131; GC1131, S. aureus GC 1131, Water pre-incubation
  MIC: 4 µg/mL (≈ 5.12 µM)
S. aureus GC 6467; GC6467, S. aureus GC 6467, Mouse Serum pre-incubation
  MIC: 2 µg/mL (≈ 2.56 µM)
S. aureus GC 6467; GC6467, S. aureus GC 6467, Water pre-incubation
  MIC: 8 µg/mL (≈ 10.2 µM)
S. aureus GC 1079; GC1079, S. aureus GC 1079, Mouse Serum pre-incubation
  MIC: 1 µg/mL (≈ 1.28 µM)
S. aureus GC 1079; GC1079, S. aureus GC 1079, Water pre-incubation
  MIC: 4 µg/mL (≈ 5.12 µM)
S. aureus GC 6335; GC6335, S. aureus GC 6335, Mouse Serum pre-incubation
  MIC: 1 µg/mL (≈ 1.28 µM)
S. aureus GC 6335; GC6335, S. aureus GC 6335, Water pre-incubation
  MIC: 4 µg/mL (≈ 5.12 µM)
S. aureus GC 6469; GC6469, S. aureus GC 6469, Mouse Serum pre-incubation
  MIC: 2 µg/mL (≈ 2.56 µM)
S. aureus GC 6469; GC6469, S. aureus GC 6469, Water pre-incubation
  MIC: 16 µg/mL (≈ 20.5 µM)
S. epidermidis GC 4935; GC4935, S. epidermidis GC 4935, Mouse Serum pre-incubation
  MIC: 2 µg/mL (≈ 2.56 µM)
S. epidermidis GC 4935; GC4935, S. epidermidis GC 4935, Water pre-incubation
  MIC: 4 µg/mL (≈ 5.12 µM)
E. faecalis GC 2265; GC2265, E. faecalis GC 2265, Mouse Serum pre-incubation
  MIC: 2 µg/mL (≈ 2.56 µM)
E. faecalis GC 2265; GC2265, E. faecalis GC 2265, Water pre-incubation
  MIC: 8 µg/mL (≈ 10.2 µM)
E. faecalis GC 2267; GC2267, E. faecalis GC 2267, Mouse Serum pre-incubation
  MIC: 1 µg/mL (≈ 1.28 µM)
E. faecalis GC 2267; GC2267, E. faecalis GC 2267, Water pre-incubation
  MIC: 8 µg/mL (≈ 10.2 µM)
E. faecium GC 2243; GC2243, E. faecium GC 2243, Mouse Serum pre-incubation
  MIC: 0.5 µg/mL (≈ 0.64 µM)
E. faecium GC 2243; GC2243, E. faecium GC 2243, Water pre-incubation
  MIC: 2 µg/mL (≈ 2.56 µM)
c. albicans GC 3066; Candida albicans, GC3066
  MIC: > 64 µg/mL
c. albicans GC 3066; c. albicans GC 3066, Water pre-incubation
  MIC: >64 UG/ML

## CN(C)c1cc(NC(=O)CN(C(=O)OCOC(=O)CCC2CCCCC2)C(C)(C)C)c(O)c2c1C[C@H]1C[C@H]3[C@H](N(C)C)C(O)=C(C(N)=O)C(=O)[C@@]3(O)C(O)=C1C2=O [Example 63, ({[(2-{[(5aR,6aS,7S,10aS)-9-(aminocarbonyl)-4,7-bis(dimethylamino)-1,8,10a,11-tetrahydroxy-10,12-dioxo-5,5a,6,6a,7,10,10a,12-octahydrotetracen-2-yl]amino}-2-oxoethyl)(tert-butyl)amino]carbonyl}oxy)methyl 3-cyclohexylpropanoate]
E. coli GC 2233; GC2233, pre-incubation in human serum
  MIC: > 64 µg/mL
E. coli GC 2233; GC2233, pre-incubation in mouse serum
  MIC: 1 µg/mL (≈ 1.25 µM)
E. coli GC 2233; GC2233, pre-incubation in water
  MIC: > 64 µg/mL
E. coli GC 2270; GC2270, pre-incubation in human serum
  MIC: 64 µg/mL (≈ 80.2 µM)
E. coli GC 2270; GC2270, pre-incubation in mouse serum
  MIC: 0.5 µg/mL (≈ 0.627 µM)
E. coli GC 2270; GC2270, pre-incubation in water
  MIC: > 64 µg/mL
E. coli GC 2271; GC2271, pre-incubation in human serum
  MIC: > 64 µg/mL
E. coli GC 2271; GC2271, pre-incubation in mouse serum
  MIC: 0.5 µg/mL (≈ 0.627 µM)
E. coli GC 2271; GC2271, pre-incubation in water
  MIC: > 64 µg/mL
E. coli GC 2272; GC2272, pre-incubation in human serum
  MIC: > 64 µg/mL
E. coli GC 2272; GC2272, pre-incubation in mouse serum
  MIC: 1 µg/mL (≈ 1.25 µM)
E. coli GC 2272; GC2272, pre-incubation in water
  MIC: > 64 µg/mL
E. coli GC 4560; GC4560, pre-incubation in human serum
  MIC: 2 µg/mL (≈ 2.51 µM)
E. coli GC 4560; GC4560, pre-incubation in mouse serum
  MIC: 0.5 µg/mL (≈ 0.627 µM)
E. coli GC 4560; GC4560, pre-incubation in water
  MIC: 16 µg/mL (≈ 20.1 µM)
E. coli GC 6465; GC6465, pre-incubation in human serum
  MIC: > 64 µg/mL
E. coli GC 6465; GC6465, pre-incubation in mouse serum
  MIC: 2 µg/mL (≈ 2.51 µM)
E. coli GC 6465; GC6465, pre-incubation in water
  MIC: > 64 µg/mL
E. coli GC 3226; GC3226, pre-incubation in human serum
  MIC: > 64 µg/mL
E. coli GC 3226; GC3226, pre-incubation in mouse serum
  MIC: 1 µg/mL (≈ 1.25 µM)
E. coli GC 3226; GC3226, pre-incubation in water
  MIC: > 64 µg/mL
E. coli GC 2203; GC2203, pre-incubation in human serum
  MIC: > 64 µg/mL
E. coli GC 2203; GC2203, pre-incubation in mouse serum
  MIC: 1 µg/mL (≈ 1.25 µM)
E. coli GC 2203; GC2203, pre-incubation in water
  MIC: > 64 µg/mL
E. coli GC 1073; GC1073, pre-incubation in human serum
  MIC: > 64 µg/mL
E. coli GC 1073; GC1073, pre-incubation in mouse serum
  MIC: 2 µg/mL (≈ 2.51 µM)
E. coli GC 1073; GC1073, pre-incubation in water
  MIC: > 64 µg/mL
P. aeruginosa GC 2214; GC2214, pre-incubation in human serum
  MIC: > 64 µg/mL
P. aeruginosa GC 2214; GC2214, pre-incubation in mouse serum
  MIC: 32 µg/mL (≈ 40.1 µM)
P. aeruginosa GC 2214; GC2214, pre-incubation in water
  MIC: > 64 µg/mL
S. aureus GC 1131; GC1131, pre-incubation in human serum
  MIC: 1 µg/mL (≈ 1.25 µM)
S. aureus GC 1131; GC1131, pre-incubation in mouse serum
  MIC: 1 µg/mL (≈ 1.25 µM)
S. aureus GC 1131; GC1131, pre-incubation in water
  MIC: 4 µg/mL (≈ 5.01 µM)
S. aureus GC 6467; GC6467, pre-incubation in human serum
  MIC: 4 µg/mL (≈ 5.01 µM)
S. aureus GC 6467; GC6467, pre-incubation in mouse serum
  MIC: 2 µg/mL (≈ 2.51 µM)
S. aureus GC 6467; GC6467, pre-incubation in water
  MIC: 16 µg/mL (≈ 20.1 µM)
S. aureus GC 1079; GC1079, pre-incubation in human serum
  MIC: 2 µg/mL (≈ 2.51 µM)
S. aureus GC 1079; GC1079, pre-incubation in mouse serum
  MIC: 1 µg/mL (≈ 1.25 µM)
S. aureus GC 1079; GC1079, pre-incubation in water
  MIC: 8 µg/mL (≈ 10 µM)
S. aureus GC 6335; GC6335, pre-incubation in human serum
  MIC: 1 µg/mL (≈ 1.25 µM)
S. aureus GC 6335; GC6335, pre-incubation in mouse serum
  MIC: 1 µg/mL (≈ 1.25 µM)
S. aureus GC 6335; GC6335, pre-incubation in water
  MIC: 4 µg/mL (≈ 5.01 µM)
S. aureus GC 6469; GC6469, pre-incubation in human serum
  MIC: 2 µg/mL (≈ 2.51 µM)
S. aureus GC 6469; GC6469, pre-incubation in mouse serum
  MIC: 1 µg/mL (≈ 1.25 µM)
S. aureus GC 6469; GC6469, pre-incubation in water
  MIC: 16 µg/mL (≈ 20.1 µM)
S. epidermidis GC 4935; GC4935, pre-incubation in human serum
  MIC: 2 µg/mL (≈ 2.51 µM)
S. epidermidis GC 4935; GC4935, pre-incubation in mouse serum
  MIC: 2 µg/mL (≈ 2.51 µM)
S. epidermidis GC 4935; GC4935, pre-incubation in water
  MIC: 4 µg/mL (≈ 5.01 µM)
E. faecalis GC 2265; GC2265, pre-incubation in human serum
  MIC: 2 µg/mL (≈ 2.51 µM)
E. faecalis GC 2265; GC2265, pre-incubation in mouse serum
  MIC: 1 µg/mL (≈ 1.25 µM)
E. faecalis GC 2265; GC2265, pre-incubation in water
  MIC: 8 µg/mL (≈ 10 µM)
E. faecalis GC 2267; GC2267, pre-incubation in human serum
  MIC: 2 µg/mL (≈ 2.51 µM)
E. faecalis GC 2267; GC2267, pre-incubation in mouse serum
  MIC: 1 µg/mL (≈ 1.25 µM)
E. faecalis GC 2267; GC2267, pre-incubation in water
  MIC: 16 µg/mL (≈ 20.1 µM)
E. faecium GC 2243; GC2243, pre-incubation in human serum
  MIC: 0.25 µg/mL (≈ 0.313 µM)
E. faecium GC 2243; GC2243, pre-incubation in mouse serum
  MIC: 0.25 µg/mL (≈ 0.313 µM)
E. faecium GC 2243; GC2243, pre-incubation in water
  MIC: 0.5 µg/mL (≈ 0.627 µM)
c. albicans GC 3066; Candida albicans, GC3066
  MIC: > 64 µg/mL
c. albicans GC 3066; pre-incubation in human serum
  MIC: >64 UG/ML
c. albicans GC 3066; pre-incubation in mouse serum
  MIC: >64 UG/ML
